Assay results as given in paper PMC6198068, “Discovery of a Novel Nav1.7 Inhibitor From Cyriopagopus albostriatus Venom With Potent Analgesic Efficacy” (Frontiers in Pharmacology, 2018).
Where a SMILES comes first, the peptide text is derived from it. Bridges are numbered along the chain shown (N, C = ends).

How the values were obtained:
Format in all cases: cell-based
hNav1.7 = target: T1, hNav1.7 (Homo sapiens, UniProt Q15858); assay: Whole-cell patch-clamp, WT Nav1.7 in HEK293T cells; conditions: mean ± SEM
T1 construct: expressed in transfected cells; host or cells: HEK293T
From the text: (§1) The cDNA genes encoding rat Nav1.4 and human Nav1.7 were subcloned into vectors pRGB4 and pcDNA3.1-mod, respectively. Mutations of rNav1.4 (N655D, Q657E, and N655D/Q657E) and hNav1.7 (D816N, E818Q, and D816N/E818Q) were constructed using the Gene Tailor Site-Directed Mutagenesis system (Invitrogen, Carlsbad, CA, United States), according to the manufacturer’s instructions. Nav1.2–Nav1.7 and mutant plasmids together with eGFP were transiently transfected into HEK293T cells while Nav1.8 together with eGFP was transiently transfected into ND7/23 cells by Lipofectamine 2000 (Invitrogen, Carlsbad, CA, United States). Additionally, plasmids β1- and β2-eGFP encoding the human β1 and β2 subunits, respectively, were co-transfected with those encoding WT Nav1.7 and Nav1.7 mutations in HEK293T cells. Human Nav1.9 was transfected into ND7/23 cells according to a previous report ([Zhou et al., 2017]). […] Cells with green fluorescent protein fluorescence were selected for whole-cell patch-clamp recordings 24 h after transfection.
(§2) Whole-cell patch-clamp recordings were performed at room temperature (20–25°C) using an EPC 10 USB Patch Clamp Amplifier (HEKA, Elektronik, Lambrecht, Germany). […] Data was analyzed by software Igo Pro 6.10A (WaveMetrics, Lake Oswego, OR, United States), SigmaPlot 10.0 (Sigma-Aldrich, St. Louis, MO, United States), OriginPro 8 (OriginLab Corp., Northampton, MA, United States), and GraphPad Prism 5 (GraphPad Software, San Diego, CA, United States). […]
Concentration-response curves were fitted using the following Hill logistic equation: y = fmax − (fmax − fmin)/(1 + (x/IC50)^n), where fmax and fmin, respectively, represent the channel’s maximum and minimum responses to toxins, fmin was set to 0, x represents toxin concentration and n is an empirical Hill coefficient. […] Peak inward currents from steady-state inactivation were normalized by the maximum current amplitude and fit with a Boltzmann equation I = Imin + 1/(1 + exp[Vm − V1/2/k]) where I is the current amplitude measured during the test depolarization, V1/2 is the midpoint of inaction, and k is the slope factor. […]

Nav1.2 = target: T2, Nav1.2 (Homo sapiens, UniProt Q99250); assay: Whole-cell patch-clamp, Nav1.2 in HEK293T cells; conditions: mean ± SEM
T2 construct: expressed in transfected cells; host or cells: HEK293T
From the text: as §1, with “cells.” for “cells. Human Nav1.9 was transfected into ND7/23 cells according to a previous report ([Zhou et al., 2017]).”
as §2

Nav1.3 = target: T3, Nav1.3 (Homo sapiens, UniProt Q9NY46); assay: Whole-cell patch-clamp, Nav1.3 in HEK293T cells; conditions: mean ± SEM
T3 construct: expressed in transfected cells; host or cells: HEK293T
From the text: as §1, with “cells.” for “cells. Human Nav1.9 was transfected into ND7/23 cells according to a previous report ([Zhou et al., 2017]).”
as §2

Human Nav1.9 = assay: Whole-cell patch-clamp, Nav1.9 in ND7/23 cells; conditions: up to 10 μM, 50 ms to −40 mV from −120 mV, in presence of 1 μM TTX
Nav1.7 [1] = target: T4, Nav1.7 (Homo sapiens, UniProt Q15858); assay: Recovery from fast inactivation (repriming) of Nav1.7; conditions: 0.2 μM; at –100 mV; control 6.42 ± 0.85 ms; P < 0.05 paired t-test; mean ± SEM, n = 6–11 cells
T4 construct: expressed in transfected cells; host or cells: HEK293T
From the text: as §1, with “States).” for “States). Additionally, plasmids β1- and β2-eGFP encoding the human β1 and β2 subunits, respectively, were co-transfected with those encoding WT Nav1.7 and Nav1.7 mutations in HEK293T cells. Human Nav1.9 was transfected into ND7/23 cells according to a previous report ([Zhou et al., 2017]).”
as §2
(§3) Fast inactivation time constants were calculated by fitting current decay traces with a single exponential function using the I–V protocol described above. […]

Nav1.7 [2] = target: T4, Nav1.7; assay: Steady-state slow inactivation of Nav1.7; conditions: 0.2 μM; 15 s pre-pulses; control −52.62 ± 3.79 mV; P < 0.01 paired t-test; mean ± SEM, n = 6–11 cells
From the text: as §1, with “States).” for “States). Additionally, plasmids β1- and β2-eGFP encoding the human β1 and β2 subunits, respectively, were co-transfected with those encoding WT Nav1.7 and Nav1.7 mutations in HEK293T cells. Human Nav1.9 was transfected into ND7/23 cells according to a previous report ([Zhou et al., 2017]).”
as §2, §3

[3] = 1 μM, 50 ms to −10 mV from −100 mV
[4] = whole-cell patch-clamp, n = 4–7 cells per data point

T1 sequence (O60939 30-215): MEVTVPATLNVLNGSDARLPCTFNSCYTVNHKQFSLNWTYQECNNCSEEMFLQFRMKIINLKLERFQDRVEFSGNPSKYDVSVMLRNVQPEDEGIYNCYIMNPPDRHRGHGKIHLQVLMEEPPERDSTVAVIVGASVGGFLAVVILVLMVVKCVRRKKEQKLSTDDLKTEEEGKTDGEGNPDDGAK
T1 sequence (Q15858 other isoform, or with tags, fused parts or gaps): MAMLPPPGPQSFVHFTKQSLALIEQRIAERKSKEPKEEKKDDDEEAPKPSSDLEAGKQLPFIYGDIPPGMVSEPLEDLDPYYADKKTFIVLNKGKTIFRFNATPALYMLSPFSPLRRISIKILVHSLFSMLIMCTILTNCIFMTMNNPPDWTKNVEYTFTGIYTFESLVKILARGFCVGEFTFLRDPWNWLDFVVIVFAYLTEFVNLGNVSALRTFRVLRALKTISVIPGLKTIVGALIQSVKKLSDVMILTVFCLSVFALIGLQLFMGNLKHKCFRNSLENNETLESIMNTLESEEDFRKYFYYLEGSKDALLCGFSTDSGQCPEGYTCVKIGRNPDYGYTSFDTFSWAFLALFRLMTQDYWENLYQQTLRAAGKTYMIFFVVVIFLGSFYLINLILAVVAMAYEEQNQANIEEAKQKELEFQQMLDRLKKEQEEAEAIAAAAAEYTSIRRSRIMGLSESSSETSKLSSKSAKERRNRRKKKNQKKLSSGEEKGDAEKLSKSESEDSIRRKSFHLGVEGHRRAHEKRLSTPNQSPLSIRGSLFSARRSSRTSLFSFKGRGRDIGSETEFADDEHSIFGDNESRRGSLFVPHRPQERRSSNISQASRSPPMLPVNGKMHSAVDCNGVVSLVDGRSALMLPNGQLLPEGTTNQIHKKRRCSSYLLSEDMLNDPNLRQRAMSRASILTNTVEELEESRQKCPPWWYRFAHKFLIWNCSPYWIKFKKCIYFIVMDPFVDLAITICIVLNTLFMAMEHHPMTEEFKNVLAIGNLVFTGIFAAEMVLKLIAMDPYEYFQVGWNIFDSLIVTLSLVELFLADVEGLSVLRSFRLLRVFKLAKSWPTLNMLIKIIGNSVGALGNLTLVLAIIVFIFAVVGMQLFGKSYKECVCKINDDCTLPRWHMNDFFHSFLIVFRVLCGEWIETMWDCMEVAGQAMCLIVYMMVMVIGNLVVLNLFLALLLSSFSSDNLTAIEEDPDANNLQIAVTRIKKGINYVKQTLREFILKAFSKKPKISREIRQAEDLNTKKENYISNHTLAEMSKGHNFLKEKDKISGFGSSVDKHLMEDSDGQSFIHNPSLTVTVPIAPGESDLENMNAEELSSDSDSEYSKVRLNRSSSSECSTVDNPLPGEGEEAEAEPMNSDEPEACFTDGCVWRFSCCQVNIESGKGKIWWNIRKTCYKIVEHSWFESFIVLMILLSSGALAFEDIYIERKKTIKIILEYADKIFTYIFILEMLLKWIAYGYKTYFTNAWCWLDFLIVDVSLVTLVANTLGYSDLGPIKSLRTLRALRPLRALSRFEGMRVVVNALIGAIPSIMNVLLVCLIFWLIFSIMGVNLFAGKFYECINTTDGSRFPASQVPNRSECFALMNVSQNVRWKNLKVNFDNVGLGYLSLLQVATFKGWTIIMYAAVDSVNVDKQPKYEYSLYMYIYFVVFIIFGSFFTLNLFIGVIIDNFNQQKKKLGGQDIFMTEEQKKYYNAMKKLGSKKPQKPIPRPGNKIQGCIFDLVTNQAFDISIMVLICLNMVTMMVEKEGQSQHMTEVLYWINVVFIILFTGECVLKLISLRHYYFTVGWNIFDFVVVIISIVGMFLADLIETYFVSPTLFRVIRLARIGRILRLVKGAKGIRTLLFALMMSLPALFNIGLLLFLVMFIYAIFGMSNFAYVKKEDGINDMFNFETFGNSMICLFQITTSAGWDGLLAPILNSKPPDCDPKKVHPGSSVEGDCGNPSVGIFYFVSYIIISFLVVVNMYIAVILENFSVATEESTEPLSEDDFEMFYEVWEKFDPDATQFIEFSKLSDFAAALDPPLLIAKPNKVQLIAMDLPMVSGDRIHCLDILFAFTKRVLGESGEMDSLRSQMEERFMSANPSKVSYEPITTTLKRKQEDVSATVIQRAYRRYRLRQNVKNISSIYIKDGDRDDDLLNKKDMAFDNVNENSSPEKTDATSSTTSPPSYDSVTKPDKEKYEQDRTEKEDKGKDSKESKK
T1 sequence (Q07699 19-218, further chain): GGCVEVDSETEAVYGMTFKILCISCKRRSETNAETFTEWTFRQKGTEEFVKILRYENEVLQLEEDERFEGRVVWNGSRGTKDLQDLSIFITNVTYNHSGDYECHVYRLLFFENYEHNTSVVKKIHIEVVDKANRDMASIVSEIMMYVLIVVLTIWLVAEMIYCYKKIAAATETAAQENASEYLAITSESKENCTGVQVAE
T2 sequence (Q99250 whole entry): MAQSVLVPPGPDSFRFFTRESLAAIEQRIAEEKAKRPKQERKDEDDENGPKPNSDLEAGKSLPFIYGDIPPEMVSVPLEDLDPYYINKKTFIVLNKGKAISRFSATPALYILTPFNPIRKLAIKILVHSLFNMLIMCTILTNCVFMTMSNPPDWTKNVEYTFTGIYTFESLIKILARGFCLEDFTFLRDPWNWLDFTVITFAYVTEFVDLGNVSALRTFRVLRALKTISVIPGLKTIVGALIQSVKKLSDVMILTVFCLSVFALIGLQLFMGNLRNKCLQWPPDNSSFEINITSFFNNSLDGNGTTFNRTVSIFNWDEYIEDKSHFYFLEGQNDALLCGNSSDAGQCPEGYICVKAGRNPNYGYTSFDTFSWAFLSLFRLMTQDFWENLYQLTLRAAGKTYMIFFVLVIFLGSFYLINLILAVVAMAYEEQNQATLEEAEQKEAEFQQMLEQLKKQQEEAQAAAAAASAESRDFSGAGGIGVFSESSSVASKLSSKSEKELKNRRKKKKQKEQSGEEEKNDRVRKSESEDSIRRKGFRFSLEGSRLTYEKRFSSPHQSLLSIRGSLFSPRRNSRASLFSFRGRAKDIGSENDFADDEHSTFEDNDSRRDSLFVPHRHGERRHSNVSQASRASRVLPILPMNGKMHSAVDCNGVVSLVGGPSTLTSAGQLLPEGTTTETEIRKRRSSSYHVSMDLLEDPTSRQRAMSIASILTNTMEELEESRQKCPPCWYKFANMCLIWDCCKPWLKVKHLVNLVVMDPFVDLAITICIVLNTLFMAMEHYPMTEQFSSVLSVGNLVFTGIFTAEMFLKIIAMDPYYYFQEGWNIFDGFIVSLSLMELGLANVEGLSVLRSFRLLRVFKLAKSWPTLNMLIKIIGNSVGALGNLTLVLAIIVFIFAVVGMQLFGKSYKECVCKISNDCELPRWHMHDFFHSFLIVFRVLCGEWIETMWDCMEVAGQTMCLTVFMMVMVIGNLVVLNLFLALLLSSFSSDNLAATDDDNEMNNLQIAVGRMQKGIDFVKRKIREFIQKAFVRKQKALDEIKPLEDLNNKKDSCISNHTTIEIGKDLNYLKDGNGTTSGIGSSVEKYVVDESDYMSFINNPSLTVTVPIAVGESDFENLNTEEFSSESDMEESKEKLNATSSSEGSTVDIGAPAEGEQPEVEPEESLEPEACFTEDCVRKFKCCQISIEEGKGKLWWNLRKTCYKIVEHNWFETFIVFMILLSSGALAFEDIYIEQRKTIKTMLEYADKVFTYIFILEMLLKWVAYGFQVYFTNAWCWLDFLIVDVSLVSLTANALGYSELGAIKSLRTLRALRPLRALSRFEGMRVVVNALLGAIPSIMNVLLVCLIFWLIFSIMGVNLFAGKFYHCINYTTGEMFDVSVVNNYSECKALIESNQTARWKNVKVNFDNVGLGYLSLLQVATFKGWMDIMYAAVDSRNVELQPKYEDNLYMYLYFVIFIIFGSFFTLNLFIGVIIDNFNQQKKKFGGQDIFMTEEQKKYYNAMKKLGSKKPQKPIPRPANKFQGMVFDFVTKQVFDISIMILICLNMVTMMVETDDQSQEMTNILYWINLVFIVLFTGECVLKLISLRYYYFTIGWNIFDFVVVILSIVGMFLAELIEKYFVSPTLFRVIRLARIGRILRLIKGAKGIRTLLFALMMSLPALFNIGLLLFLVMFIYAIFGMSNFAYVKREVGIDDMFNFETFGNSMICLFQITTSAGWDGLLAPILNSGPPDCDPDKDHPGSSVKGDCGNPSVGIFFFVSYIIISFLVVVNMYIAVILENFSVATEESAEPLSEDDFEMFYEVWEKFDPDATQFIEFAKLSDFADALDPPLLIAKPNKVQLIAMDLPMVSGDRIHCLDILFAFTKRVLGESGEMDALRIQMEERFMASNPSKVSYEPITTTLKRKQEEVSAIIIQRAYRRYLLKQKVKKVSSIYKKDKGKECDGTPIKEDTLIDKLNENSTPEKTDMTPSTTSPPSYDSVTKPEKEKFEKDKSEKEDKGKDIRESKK
T4 sequence (O60939 30-215): as the sequence (O60939 30-215) above
T4 sequence (Q15858 other isoform, or with tags, fused parts or gaps): as the sequence (Q15858 other isoform, or with tags, fused parts or gaps) above
T4 sequence (Q07699 19-218, further chain): as the sequence (Q07699 19-218, further chain) above

SMILES: CC(C)C[C@H](NC(=O)[C@H](CC(=O)O)NC(=O)[C@H](Cc1ccc(O)cc1)NC(=O)[C@H](CCCCN)NC(=O)[C@@H]1CSSC[C@@H]2NC(=O)[C@H](CCCCN)NC(=O)[C@H](CC(=O)O)NC(=O)[C@H](CC(N)=O)NC(=O)[C@H](CO)NC(=O)[C@@H]3CCCN3C(=O)[C@H](CC(N)=O)NC(=O)[C@@H]3CSSC[C@H](NC(=O)[C@H](C(C)C)NC(=O)[C@H](CC(C)C)NC(=O)[C@H](CO)NC(=O)[C@H](CO)NC(=O)[C@H](CO)NC(=O)[C@H](CCCCN)NC(=O)[C@H](CSSC[C@H](NC(=O)[C@H](C)N)C(=O)N[C@@H](CC(C)C)C(=O)NCC(=O)N[C@@H](Cc4ccccc4)C(=O)NCC(=O)N[C@@H](CCC(=O)O)C(=O)N[C@@H](CCCCN)C(=O)N3)NC2=O)C(=O)N[C@@H](CO)C(=O)N[C@@H](CCC(N)=O)C(=O)N[C@@H](CCCCN)C(=O)N[C@@H](Cc2c[nH]cn2)C(=O)N[C@@H](CCCCN)C(=O)N[C@@H](Cc2c[nH]c3ccccc23)C(=O)N1)C(=O)O [Ca2a] (H-ACLGFGEKCNPSNDKCCKSSSLVCSQKHKWCKYDL-OH; disulfide 2-17, 9-24, 16-31 (inferred); N-terminus and C-terminus assumed)
- inhibition at 0.2 µM (hNav1.7; HEK-293T, 0.2 μM, read-out: inhibition of Nav1.7 current): 64.5 ± 2.1%
- inhibition at 1 µM (hNav1.7; HEK-293T, 1 μM, 50 ms depolarization to −10 mV from −100 mV, room temperature, read-out: inhibition on Nav1.7 currents): 87.3 ± 4.4%
- IC50 (hNav1.7; whole-cell patch-clamp, 50 ms to −10 mV from −100 mV, n = 4–7 cells per data point): 98.1 ± 3.3 nM
- decrease of Nav1.2 current amplitude (Nav1.2; [3]): 82.6 ± 2.7%
- IC50 (Nav1.2; [4]): 216 ± 9.1 nM
- decrease of Nav1.3 current amplitude (Nav1.3; [3]): 67.7 ± 3.8%
- IC50 (Nav1.3; [4]): 491.3 ± 3.9 nM
- inhibitory effect on Nav1.9 currents (Human Nav1.9): no inhibitory effects
- τ of recovery from fast inactivation at Nav1.7 (Nav1.7 [1]): 8.93 ± 1.62 ms
- steady-state slow inactivation potential of Nav1.7 (Nav1.7 [2]): −72.00 ± 2.76 mV
